Assays:
[1] = tested on: C. elegans transgenics expressing human PABPN1 with 10 or 13 Alas; assay: Motility drug assay, number of whole body bends; assay type: in vivo; settings: for motility in controls: PABPN1-A10 / control animals; for genetic dependence of the effect on abnormal motility: PABPN1-A13 animals with null mutation of sir-2.1 (ok434), daf-16 (mu86) or aak-2 (ok524); for abnormal motility (frequency of body bends) produced by mutant PABPN1: PABPN1-A13 animals, sirtinol and splitomicin at day 5, resveratrol at day 3 of adulthood
Description: Motility assays. 1-5 day old adult hermaphrodites were laid on confluent OP-50-1. The animals were then scored immediately for whole body bends for a duration of 20 seconds as previously described^23, or photos of the tracks were taken using a 2,5X objective on a Zeiss microscope and their amplitudes measured using the Meta View software. 100 animals were scored per experiment and three independent assays performed. Percent rescue of the body bends phenotype was calculated as ((control - test)/control*100) and percent rescue of the sinusoid wave phenotype as ((test - control)/control*100). ANOVA tests and Tukey's Multiple Comparison Tests were used for statistics.
(§1) Drug assays. Synchronized populations of L1 larvae expressing GFP and PABPN1 with 10 or 13 Alas were obtained by hypochlorite extraction. To test for muscle nuclei loss, animals were grown in 96-well microtiter plates in 50 µl liquid culture medium with sodium butyrate, resveratrol, sirtinol or splitomicin for 65 hours at 20°C, transferred to agarose pads on slides, and scored for cell nuclei loss at 10X-63X using a Zeiss fluorescence microscope (Axioplan Imaging II). 60 worms were scored per point and three independent assays performed. To test for motility, the synchronized L1 larvae were grown on NGM plates containing drugs until they became 1-5 day old adults. Animals were transferred to new plates every other day to keep them separate from progeny, then transferred to confluent OP-50.1 bacteria test plates and assessed for the number of whole body bends as described above (see Motility assays).

[2] = tested on: COS-7 cells overexpressing GFP-PABPN1 fusion proteins with 0, 10, or 17 Alas; assay: Cell survival by live microscopy of GFP positive cells; assay type: cell-based; settings: day 5; 0.5 µM resveratrol, 2.5 µM sirtinol
Description: (§2) Cell culture and transfection. Twenty-four hours before transfection, COS-7 cells were seeded in Dulbeco's modified Eagle's medium (DMEM) containing 10% fetal calf serum at a concentration of 2 x 10^5 cells per well in 12-well plates suited for the automated live microscopy. The cells were transfected with plasmid DNA (1 µg) pre-complexed with the Plus reagent and diluted in Lipofectamine reagent according to the manufacturer's instructions. To check the protein expression before and after the drug treatment, parallel plates were prepared for Western blotting.
(§3) Drug treatment. Resveratrol and Sirtinol were dissolved in DMSO. In the initial cell treatment experiments, we performed dose-response experiments, using non-transfected cells, to define the most appropriate doses to be used for the drugs. […] The drugs or vehicle as a control were applied on transfected cells 24 h post-transfection. Cells (in the 12-well plate) were then incubated for 24 h before analysis using a Leica automated microscope stage.
Assessment of cell survival. Cell survival was assessed using live microscopy as previously described^12. Briefly, 12-well plates containing transfected cells treated or not treated with drugs were placed on a live stage microscope equipped with a digital camera, CO2 incubation chamber, and a motorized X-Y-axis stage and connected to the Openlab software (Improvision). The microscopic robotic stage allows parallel tracking of multiple fields, both within a single well and in multiple wells. […] The system was set to memorize three different fields of cells (from each separate well) and control the stage return to the same position at pre-fixed intervals. The microscope allowed us to return back to the same point and count the same cells in the field. Cell survival was monitored every 24 h for five consecutive days, with Day 1 corresponding to 24 h post-transfection before the drug treatment. On average, 150 cells per field per construct were counted. Cell viability was assayed by analysis of GFP positive cells. The average of cell survival of each group of cells was scored for the three different chosen fields and percent rescue calculated as ((test - control)/control*100). Three independent experiments were performed. ANOVA tests and Tukey's Multiple Comparison Test were used for statistics.

[3] = tested on: C. elegans transgenics expressing human PABPN1 with 10 or 13 Alas; assay: Muscle nuclei loss (MNL) drug assay in transgenic nematodes, counting GFP positive muscle cell nuclei; assay type: in vivo; settings: for genetic dependence of the effect on MNL: PABPN1-A13 animals with null mutation of sir-2.1 (ok434), daf-16 (mu86) or aak-2 (ok524); for muscle nuclei loss (MNL) caused by PABPN1-A13 expression: PABPN1-A13 animals, 65 hours at 20°C in liquid culture, maximal achievable rescue 28 %; for muscle nuclei loss (MNL) in controls: PABPN1-A10 / control animals
Description: Analysis of muscle cells. Muscle cells in transgenic hermaphrodites were examined for loss of nuclei through counting GFP positive cells. Percent rescue was calculated as ((test - control)/control*100). Muscle cells in transgenic hermaphrodites were examined for PABPN1 expression through fluorescent microscopy. Whole animals were permeabilized and stained with the PABPN1 antiserum VEADa-14 (Centre de Recherche du CHUM, Montreal; 1:50), and fluorescent microscopy was conducted on a Zeiss microscope (Axioplan Imaging II). Observations of the structure of body wall muscles in young adult transgenics after Phalloidin-Rhodamin (FluoProbes) staining were performed as previously described^51. ANOVA tests and Tukey's Multiple Comparison Test were used for statistics.
as §1

[4] = tested on: COS-7 cells transfected with normal (10 Alas) and mutant (17 Alas) PABPN1; assay: Histone acetylation analysis by western blot; assay type: cell-based; settings: COS-7 cells expressing normal or mutant PABPN1, 500 µM or 5 mM for the last 24h
Description: as §2
Histone acetylation analysis. COS-7 cells transfected with normal (10 Alas) and mutant (17 Alas) PABPN1 cDNAs were plated for 48h and treated for the last 24h with 500 µM or 5 mM sodium butyrate. Controls included non-butyrate-treated cells. Cells were lysed in 10 mM Tris, 50 mM sodium bisulfite, 1% triton X-100, 10 mM magnesium chloride, 8.6% sucrose, pH 6.5 and a cocktail of proteases inhibitors for 10 min. Proteins were extracted under acidic conditions as described^53. Ten micrograms of whole cell extract were analysed by western blot. […] Signals were quantified using NIH IMAGE 1.62 and t tests used for statistical analysis.

non-transfected cells = assay: Dose-response experiments for cell toxicity; assay type: cell-based; settings: five days, 0.5 µM resveratrol, 2.5 µM sirtinol
Description: as §3

Structure (SMILES) | motility in controls [1] | genetic dependence of the effect on abnormal motility [1] | abnormal motility (frequency of body bends) produced by mutant PABPN1 [1] | cell survival in cells overexpressing GFP-PABPN1 with 0 and 10 Alas [2] | cell survival in mutant PABPN1-A17 cells [2] | genetic dependence of the effect on MNL [3] | muscle nuclei loss (MNL) caused by PABPN1-A13 expression [3] | level of acetylation of histone H3 [4] | level of acetylation of histone H4 [4] | muscle nuclei loss (MNL) in controls [3] | cell toxicity (non-transfected cells)
CC(NC(=O)c1ccccc1/N=C/c1c(O)ccc2ccccc12)c1ccccc1 (stereo not shown) [sirtinol, 2-[(2-Hydroxynaphthalen-1-yl-methylene)amino]-N-(1-phenethyl)benzamide] | no effect detected | dependent on sir-2.1 and daf-16 | rescued abnormal motility | no effects | strongly enhanced cell survival | dependent on sir-2.1, daf-16 but not aak-2 | dose-dependent rescue of MNL | – | – | – | –
CCCC(=O)[O-].[Na+] [sodium butyrate] | – | – | – | – | – | – | strong (the maximal achievable rescue is 28 %) rescue | increased | increased | – | –
Oc1ccc(C=Cc2cc(O)cc(O)c2)cc1 [resveratrol] | – | daf-16 independent and sir-2.1 and aak-2 dependent | enhancement of abnormal motility | no effects | slightly decreased cell survival | mediated by sir-2.1 and aak-2 | enhanced MNL | – | – | no effect in PABPN1-A10 animals | did not cause cell toxicity
O=C1CCc2c(ccc3ccccc23)O1 [splitomicin, 1,2-Dihydro-3H-naphtho[2,1-b]pyran-3-one] | no effect in controls | – | rescued the MNL and abnormal motility | – | – | – | rescued the MNL | – | – | no effect in controls | –
